Earlier results as cited in patent publication US7037910B2, “Azabicyclic heterocycles as cannabinoid receptor modulators” (Bristol-Myers Squibb, priority 2003, dated 2006).
Read-outs that look alike come from different tables or passages of the source.

Legend:
[1] = chronic administration for two weeks
[2] = human subjects, 16 week trial period

Cc1c(C(=O)NN2CCCCC2)nn(-c2ccc(Cl)cc2Cl)c1-c1ccc(I)cc1 [AM-251]
body weight [1]: substantial body weight reduction

Cc1c(C(=O)NN2CCCCC2)nn(-c2ccc(Cl)cc2Cl)c1-c1ccc(Cl)cc1 [SR-141716]
body weight [2]: dose-dependently reduced body weight
